Experimental data published in patent publication US9274101B2 (BIOLOG, Inc., priority 2001, dated 2016).

Key:
HepG2 cells = HepG2 cells cultured on CYTODEX 3 microcarriers, energy sources; assay type: cell-based, human; details: for activity at 30 µM / activity at 100 µM / activity at 330 µM / activity at 1000 µM / activity at 3300 µM / activity at 10000 µM / activity at 15000 µM / activity at 20000 µM: Homo sapiens, HepG2, 68 h, read-out: Responses of HepG2 Cells Cultured on Microcarriers After 68 hours in Culture and a 4 hour Color Development Period
Procedure, shortened: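 HepG2 cells on CYTODEX 3 microcarriers, held in methylcellulose-containing DME with 10% HI FBS lacking glucose, glutamine and pyruvate, exposed to test energy sources at 0.033–20 mM final. After 68 h at 37 °C, MTS/PMS read at 490 nm (ref 650 nm) after 4–8 h; cell-free background subtracted, normalized to % no-energy-source control.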

E. coli MG1655 = assay type: cell-based, Escherichia coli
HL-60 cells = HL-60 cells in PM1 and PM2 plates, MTS/MPMS color, % negative control; assay type: cell-based, human; details: L-glutamine 13.7 mM (well E1); citric acid 10.4 mM (well F2)
[1] = system: Salmonella typhimurium auxotrophs hisF645 and pyrCΔ73; assay type: cell-based

SMILES	suitability as nitrogen source (growth, purple color) (E. coli MG1655)	activity at 30 µM (HepG2 cells; Conc. 0.03 mM) [%]	activity at 100 µM (HepG2 cells; Conc. 0.10 mM) [%]	activity at 330 µM (HepG2 cells; Conc. 0.33 mM) [%]	activity at 1000 µM (HepG2 cells; Conc. 1.00 mM) [%]	activity at 3300 µM (HepG2 cells; Conc. 3.3 mM) [%]	activity at 10000 µM (HepG2 cells; Conc. 10 mM) [%]	activity at 15000 µM (HepG2 cells; Conc. 15 mM) [%]	activity at 20000 µM (HepG2 cells; Conc. 20 mM) [%]	also measured
O=C1O[C@@H]([C@H](O)CO)[C@H](O)[C@H]1O [D-gal acid g-lactone]										Responses of HepG2 Cells Cultured on Microcarriers After 68 hours in Culture and a 4 hour Color Development Period (HepG2 cells; Conc. 0.03 mM): 99.4 % of negative control; Responses of HepG2 Cells Cultured on Microcarriers After 68 hours in Culture and a 4 hour Color Development Period (HepG2 cells; Conc. 0.10 mM): 100.2 % of negative control; Responses of HepG2 Cells Cultured on Microcarriers After 68 hours in Culture and a 4 hour Color Development Period (HepG2 cells; Conc. 0.33 mM): 89.0 % of negative control; Responses of HepG2 Cells Cultured on Microcarriers After 68 hours in Culture and a 4 hour Color Development Period (HepG2 cells; Conc. 1.00 mM): 89.4 % of negative control; Responses of HepG2 Cells Cultured on Microcarriers After 68 hours in Culture and a 4 hour Color Development Period (HepG2 cells; Conc. 3.3 mM): 101.7 % of negative control; Responses of HepG2 Cells Cultured on Microcarriers After 68 hours in Culture and a 4 hour Color Development Period (HepG2 cells; Conc. 10 mM): 95.2 % of negative control; Responses of HepG2 Cells Cultured on Microcarriers After 68 hours in Culture and a 4 hour Color Development Period (HepG2 cells; Conc. 15 mM): 98.6 % of negative control; Responses of HepG2 Cells Cultured on Microcarriers After 68 hours in Culture and a 4 hour Color Development Period (HepG2 cells; Conc. 20 mM): 74.1 % of negative control
NC(=O)C[C@H](N)C(=O)O [L-asparagine]	positive									
NC(=O)CC[C@H](N)C(=O)O [L-glutamine]	positive	110	151	195	211	212	183	150	101	response in words (HL-60 cells): strong positive response; response in words (HepG2 cells; 68 hours culture, responses greater than 140% of the negative control scored positive): narrow range of responsiveness
N[C@@H](Cc1c[nH]cn1)C(=O)O [L-histidine]	not suitable									growth stimulation (well color) [1]: turned purple
CC(C)[C@H](N)C(=O)O [L-valine]	not suitable									
Cc1cn([C@H]2C[C@H](O)[C@@H](CO)O2)c(=O)[nH]c1=O [Thymidine]	not suitable	87.9	101	97.9	99.4	89	71.4	65.2	34.5	
